{"source": "patent US12508243B2", "about": "“Compositions and methods for treating cancer and improving epithelial homeostasis” (The Regents of the University of California, priority 2019, dated 2025)", "key": {"[1]": {"tested_on": "TCF/LEF luciferase reporter", "test": "TCF/LEF luciferase reporter assay in transduced BEAS2B cells (CHIR-induced)", "type": "cell-based, human", "experimental": "BEAS2B cells (ATCC CRL-9609) were seeded in a 6-well plate and infected with Cignal lentiviral particles containing a TCF/LEF luciferase reporter (Qiagen CLS-018L). Cells were spin infected at 37° C. for one hour using a multiplicity of infection of 20. Cells were selected with 0.6 μg/mL puromycin to isolate stably expressing clones.\n(§1) For luciferase reporter assays conducted outside of the high-throughput drug screen, BEAS2B cells were seeded in a 96-well plate at 20,000 cells per well. The following day, cells were with treated DMSO, 5 μM CHIR99021 (CHIR; Tocris 4423), or 5 μM CHIR plus WIC2 (Key Organics GP-0355), Coumarin (Sigma C4261), or WIC1 for 24 hours. Lysis reactions were conducted using BrightGlo (Promega E1910) and incubated for two minutes at room temperature prior to transferring luminescence reactions to white-bottom, white-walled 96-well plates (Costar). Toxicity assays were conducted by adding Cell Titer Glo reagent (Promega) following manufacturer's protocol. Luminescence readings were conducted using the Clariostar plate reader.\nIn light of the finding that Wnt/β-catenin signaling drives ABSC hyperproliferation, a small molecule inhibitors of the pathway that could restore airway homeostasis. A high-throughput drug screen was established to identify compounds capable of reducing TCF/LEF activity measured by a luciferase reporter induced by CHIR treatment in a 384-well format (FIG. 3A). Briefly, white-bottom 384-well plates (Greiner One) were precoated overnight with 0.01 mg/mL fibronectin from human plasma (Sigma F0895), 0.03 mg/mL rat tail collagen type I (Corning 354249), and 0.01 mg/mL BSA (ThermoFisher BP-9706) diluted in 50 uL of Airway Epithelial Cell Growth Medium (PromoCell C21060). Precoat was then aspirated and washed using 100 μL the BioTek EL406. A custom V&P pin tool mounted to a Beckman FX liquid handler was then used to pin […] of 10 mM stock compound. 2,000 BEAS2B cells per well were then seeded using the Multidrop. Cells were therefore treated with 1% DMSO, 5 μM CHIR, or 5 μM CHIR+10 μM pinned compound and incubated for 24 hours at 37° C. and 5% CO2. […] 25 μL BrightGlo (Promega) was subsequently added to each well using the BioTek EL405 and incubated for 2 minutes prior reading luminescence values with the Envision plate reader (FIG. 3B). […] Z′ factor values were used to assess assay quality and was calculated by: Z′=1-3(SD Total+SDBackground)/(MeanTotal−MeanBackground) where SDTotal and MeanTotal are the standard deviation and mean of signal for CHIR-treated wells, and SDBackground and MeanBackground are the standard deviation and mean of signal for DMSO-treated wells. The Z′ factor value was calculated to be 0.82."}, "[2]": {"tested_on": "BEAS2B cells", "test": "Hoechst stain toxicity assay (nuclei count) in BEAS2B cells", "type": "cell-based, human", "conditions": "CHIR+10 uM compound, 24 hours"}, "[3]": {"tested_on": "BEAS2B cells", "test": "Cell Titer Glo toxicity assay in BEAS2B cells", "type": "cell-based, human", "experimental": "as §1"}, "[4]": {"tested_on": "mouse ABSCs (mABSCs)", "test": "EdU proliferation assay in mouse ABSCs, submerged culture", "type": "cell-based", "conditions": "1 μM CHIR + 1 μM inhibitor, submerged culture 4 days", "experimental": "(§2) Mouse and human ABSCs were isolated following a previously published method. Briefly, mouse tracheas were dissected, cleaned, and incubated in 16 U/mL dispase for 30 minutes (1 hour for human) at room temperature. Tracheas were then incubated in 0.5 mg/mL DNase for another 30 minutes (1 hour for human) at room temperature. Epithelium was stripped and incubated in 0.1% Trypsin-EDTA for 30 minutes (1 hour for human) shaking at 37° C. to generate a single cell suspension. Isolated cells were passed through a 40 μm strainer and stained with fluorophore-conjugated antibodies against ITGA6 and TROP2. ITGA6+ TROP2+ cells were obtained via FACS that was completed using the BD FACSAria cell sorter.\n(§3) In vitro proliferation was studied using the Click-iT EdU incorporation assay kit (Invitrogen C10337) following the company's protocol. Briefly, mouse and human AB SC cultures were treated with 10 μM EdU 6-8 hours prior to commencing IFs. Cells were fixed with […] for 15 minutes followed by permeabilization in 0.5% Triton-X for 20 minutes. EdU cocktail was incubated for 30 minutes in darkness followed by immunocytochemistry.\n(§4) To determine whether the pathobiology observed in human patients can be modeled in vitro, mouse ABSCs (mABSCs) were treated with GSK3β inhibitor CHIR99021 (CHIR) under submerged culture conditions for 4 days to activate canonical Wnt signaling (FIG. 2A)."}, "[5]": {"tested_on": "human ABSCs", "test": "Proliferation of human ABSCs treated with DMSO, CHIR or CHIR+WIC1", "type": "cell-based", "conditions": "CHIR+WIC1 vs CHIR", "experimental": "as §2, §3\n(§5) To assess whether WIC1 could reverse Wnt/β-catenin-induced ABSC hyperproliferation, human ABSCs were treated with either DMSO, CHIR, or CHIR+WIC1. […] It was then sought to determine if WIC1 could promote ABSC differentiation to ciliated cells under ALI conditions."}, "[6]": {"tested_on": "mouse ABSCs (mABSCs)", "test": "Air-liquid interface (ALI) differentiation assay with mouse ABSCs", "type": "cell-based", "conditions": "mABSCs, ALI", "experimental": "(§6) 24-well 6.5 mm transwells with 0.4 μm pore polyester membrane inserts were coated with 0.2 mg/mL collagen type I dissolved in 60% ethanol and allowed to air dry. ABSCs were seeded at 100,000 cells per well and allowed to grow in the submerged phase of culture for 4-5 days with 500 μl media in the basal chamber and 200 μl media in the apical chamber. ALI cultures were then established and culture with only 500 μl media in the basal chamber, and cultures harvested at varying timepoints for immunofluorescence studies. Media was changed every other day and cultures were maintained at 37° C. and 5% C02. ABSCs were treated with the indicated concentrations of GSK3XV (Sigma 361558), CHIR or WIC1.\nMouse ABSCs were grown in MTEC Plus media and MTEC serum-free media during the submerged and ALI phases of culture, respectively. MTEC base media is DMEM/Ham's F12 50/50 (Corning 15090CV). Table S1 and Table S2 indicate the media components and concentrations for MTEC Plus and MTEC serum-free media, respectively.\nMouse and human ABSCs were fixed in […] for 15 minutes followed by permeabilization with 0.50% Triton-X for 10 minutes. Cells were blocked using serum-free protein block (Dako X090930) for one hour at room temperature and overnight primary antibody incubation. Secondary antibodies were incubated for 1 hour in darkness, washed, and mounted using Vectashield hardest mounting medium with DAPI (Vector Labs H-1500). IF images were obtained using an LSM780 or LSM880 Zeiss confocal microscope and composite images generated using Fiji. […]"}, "[7]": {"tested_on": "human ABSCs", "test": "Air-liquid interface (ALI) differentiation assay with human ABSCs", "type": "cell-based", "experimental": "as §6\n(§7) Mouse and human ABSCs were fixed in […] for 15 minutes followed by permeabilization with 0.50% Triton-X for 10 minutes. Cells were blocked using serum-free protein block (Dako X090930) for one hour at room temperature and overnight primary antibody incubation. Secondary antibodies were incubated for 1 hour in darkness, washed, and mounted using Vectashield hardest mounting medium with DAPI (Vector Labs H-1500). IF images were obtained using an LSM780 or LSM880 Zeiss confocal microscope and composite images generated using Fiji.\nas §5"}, "[8]": {"tested_on": "p-β-catenin^Y489", "test": "Immunofluorescence staining of phosphorylated β-catenin localization in ABSCs", "type": "cell-based, mouse", "conditions": "WIC1 added to CHIR-treated cultures", "experimental": "as §7, §4"}, "[9]": {"tested_on": "Wnt signaling target genes CCND1, MYC, CTNNB1", "test": "qRT-PCR of downstream Wnt signaling target genes in ABSCs", "type": "cell-based, human", "conditions": "ABSCs under ALI conditions", "experimental": "(§8) RNA was isolated with the RNeasy Mini Kit (Qiagen 74104) following manufacturer's protocol and quantified using a NanoDrop Spectrophotometer (ThermoFisher). cDNA synthesis was performed using the TaqMan Reverse Transcription Reagents (ThermoFisher) as indicated by the company. qPCR was then performed using the TaqMan PCR Master Mix (Applied Biosystems) on the StepOne-Plus Real Time PCR System.\nas §5"}, "[10]": {"tested_on": "Trp63", "test": "Trp63 expression with CHIR and WIC1 treatment (FIG. 4F)", "type": "cell-based", "conditions": "WIC1 treatment of CHIR-induced expression", "experimental": "as §8"}, "[11]": {"tested_on": "TP63", "test": "qRT-PCR of TP63 expression in BEAS2B cells", "type": "cell-based, human", "conditions": "CHIR plus WIC1", "experimental": "as §8"}}, "note": "“Also recorded” adds a separate entry of the source.", "data": [{"smiles": "CCN1CCN(c2ccc(NC(=O)c3cc4ccccc4oc3=O)cc2)CC1", "note": "[WIC1]", "values": [{"measurement": "TCF/LEF activity, inhibitor comparison", "setting": "[1]; 100 nM and 1 μM, WIC1, MSAB, LF3, ICG001 compared", "result": "most potent inhibitor"}, {"measurement": "TCF/LEF luciferase reporter activity", "setting": "[1]; CHIR-induced reporter, single treatment vs CHIR", "result": "decreased TCF/LEF luciferase reporter activity; also recorded: decreases TFC/LEF luciferase reporter activity; also recorded: suppressed TCF/LEF activity"}, {"measurement": "TCF/LEF luciferase reporter activity, dose course", "setting": "[1]; CHIR-induced reporter, various concentrations", "result": "stepwise decrease in TCF/LEF activity; also recorded: Higher concentrations of WIC1 decrease TFC/LEF luciferase reporter activity to a greater extent"}, {"measurement": "Toxicity by Hoechst stain", "setting": "[2]", "result": "no toxicity; also recorded: minimal toxicity"}, {"measurement": "Toxicity by Cell Titer Glo", "setting": "[3]; 10 μM", "result": "non-toxic"}, {"measurement": "Toxicity by Cell Titer Glo", "setting": "[3]; various concentrations", "result": "minimal toxicity at each concentration"}, {"measurement": "mABSC proliferation (EdU incorporation)", "setting": "[4]", "result": "decreased mABSC proliferation to a similar degree"}, {"measurement": "Human ABSC proliferation", "setting": "[5]", "result": "significant reduction in ABSC proliferation; also recorded: reduced Wnt/β-catenin-driven human ABSC hyperproliferation"}, {"measurement": "Proportion of ciliated cells", "setting": "[6]; 100 nM inhibitor vs DMSO", "result": "induced a greater proportion of ciliated cells"}, {"measurement": "Percentage of ciliated cells", "setting": "[6]; 1 μM inhibitor vs DMSO", "result": "no effect on the percentage of ciliated cells"}, {"measurement": "Ciliated cell differentiation", "setting": "[7]; ABSCs, ALI, 100 nM vs DMSO", "result": "significantly induced ciliated cell differentiation; also recorded: increased differentiation to ciliated cells"}, {"measurement": "Ciliated cell differentiation", "setting": "[7]; in vitro, concentration not given", "result": "promoted ciliated cell differentiation"}, {"measurement": "Nuclear localization of p-β-catenin^Y489", "setting": "[8]", "result": "decreased the nuclear localization"}, {"measurement": "mRNA expression of downstream Wnt signaling target genes (CCND1, MYC, CTNNB1)", "setting": "[9]", "result": "decreased mRNA expression"}, {"measurement": "Trp63 expression", "setting": "[10]", "result": "substantially reversed"}, {"measurement": "TP63 expression", "setting": "[11]", "result": "reduced"}]}]}
